ChEMBL document CHEMBL5137032, “Design, synthesis of DNA-interactive 4-thiazolidinone-based indolo-/pyrroloazepinone conjugates as potential cytotoxic and topoisomerase I inhibitors” (Eur J Med Chem, 2022)
Activity calls are given as the source filed them. The calls are words filed in the database; no cut-off is given here.

Assays:
Calf thymus DNA [1] = assay: Binding affinity to calf thymus DNA assessed as hyperchromicity at 10 to 20 uM by UV-Vis spectroscopic analysis; type: nucleic-acid assay; conditions: Bos taurus; dose 10-20 µM
A549 [2] = assay: Induction of apoptosis in human A549 cells assessed as chromatin condensation at 0.625 to 2.5 uM incubated for 48 hrs by AO/EB staining based fluorescence microscopy; type: functional, cell-based; conditions: dose 0.625-2.5 µM, DDE = dose-dependent effect
A549 [3] = assay: Anti-migration activity in human A549 cells assessed as distance travelled at 1.25 uM incubated for 48 hrs by wound healing assay based phase contrast microscopy; type: functional
[4] = target: DNA topoisomerase 2-alpha (Homo sapiens) (UniProt P11388); assay: Inhibition of DNA topoisomerase 2 (unknown origin) assessed as reduction in decatenation using kDNA as substrate incubated for 30 mins measured by agarose gel electrophoresis method
A549 [5] = assay: Induction of apoptosis in human A549 cells assessed as chromatin condensation at 0.625 to 2.5 uM incubated for 48 hrs by DAPI staining based fluorescence microscopic analysis; type: functional, cell-based; conditions: dose 0.625-2.5 µM
A549 [6] = assay: Anti-migration activity in human A549 cells assessed as distance travelled at 0.625 uM by wound healing assay based phase contrast microscopy; type: functional
Calf thymus DNA [7] = assay: Binding affinity to calf thymus DNA assessed as increase in viscosity at 15 uM by ethidium bromide-Hoechst 33342 staining based analysis; type: nucleic-acid assay; conditions: Bos taurus
A549 [8] = assay: Cytotoxicity against human A549 cells assessed as cell growth inhibition incubated for 48 hrs by MTT assay; type: functional, cell-based; conditions: A549, 48 h
HCT-116 = assay: Cytotoxicity against human HCT-116 cells assessed as cell growth inhibition incubated for 48 hrs by MTT assay; type: functional, cell-based; conditions: HCT-116, 48 h
A549 [9] = assay: Induction of apoptosis in human A549 cells assessed as late apoptotic cells at 2.5 uM incubated for 48 hrs by Annexin V-FITC/propidium iodide staining based flow cytometric analysis; type: functional
MCF7 = assay: Cytotoxicity against human MCF7 cells assessed as cell growth inhibition incubated for 48 hrs by MTT assay; type: functional, cell-based; conditions: MCF7, 48 h
A549 [10] = assay: Induction of intracellular ROS generation in human A549 cells at 0.625 to 2.5 uM incubated for 48 hrs by […] fluorescence microscopic analysis; type: functional, cell-based; conditions: dose 0.625-2.5 µM, DDE = dose-dependent effect
A549 [11] = assay: Induction of apoptosis in human A549 cells assessed as changes in nuclear morphology at 0.625 to 2.5 uM incubated for 48 hrs by DAPI staining based fluorescence microscopic analysis; type: functional, cell-based; conditions: dose 0.625-2.5 µM
A549 [12] = assay: Induction of apoptosis in human A549 cells assessed as changes in cell morphology at 0.625 to 2.5 uM incubated for 48 hrs by phase contrast microscopy; type: functional, cell-based; conditions: dose 0.625-2.5 µM
A549 [13] = assay: Induction of apoptosis in human A549 cells assessed as late apoptotic cells at 0.625 to 1.25 uM incubated for 48 hrs by Annexin V-FITC/propidium iodide staining based flow cytometric analysis; type: functional, cell-based; conditions: dose 0.625-1.25 µM
A549 [14] = assay: Induction of apoptosis in human A549 cells assessed as cell shrinkage at 0.625 to 2.5 uM incubated for 48 hrs by phase contrast microscopy; type: functional, cell-based; conditions: dose 0.625-2.5 µM, DDE = dose-dependent effect
A549 [15] = assay: Induction of apoptosis in human A549 cells assessed as membrane blebbing at 0.625 to 2.5 uM incubated for 48 hrs by AO/EB staining based fluorescence microscopy; type: functional, cell-based; conditions: dose 0.625-2.5 µM, DDE = dose-dependent effect
HT-29 = assay: Cytotoxicity against human HT-29 cells assessed as cell growth inhibition incubated for 48 hrs by MTT assay; type: functional, cell-based; conditions: HT-29, 48 h
SK-MEL-28 = assay: Cytotoxicity against human SK-MEL-28 cells assessed as cell growth inhibition incubated for 48 hrs by MTT assay; type: functional, cell-based; conditions: SK-MEL-28, 48 h
A549 [16] = assay: Anti-migration activity in human A549 cells assessed as distance travelled at 2.5 uM by wound healing assay based phase contrast microscopy; type: functional
A549 [17] = assay: Induction of apoptosis in human A549 cells assessed as necrotic cells at 0.625 to 2.5 uM incubated for 48 hrs by Annexin V-FITC/propidium iodide staining based flow cytometric analysis; type: functional; conditions: dose 0.625-2.5 µM
A549 [18] = assay: Induction of apoptosis in human A549 cells assessed as nuclear fragmentation at 0.625 to 2.5 uM incubated for 48 hrs by DAPI staining based fluorescence microscopic analysis; type: functional, cell-based; conditions: dose 0.625-2.5 µM
A549 [19] = assay: Induction of apoptosis in human A549 cells assessed as cell shrinkage at 0.625 to 2.5 uM incubated for 48 hrs by AO/EB staining based fluorescence microscopy; type: functional; conditions: dose 0.625-2.5 µM, DDE = dose-dependent effect
[20] = Cytotoxicity against rat NRK cells assessed as cell growth inhibition incubated for 48 hrs by MTT assay; type: toxicity, cell-based
DNA topoisomerase 1 = target: T1, DNA topoisomerase 1 (Homo sapiens, UniProt P11387); assay: Inhibition of human DNA topoisomerase 1 assessed as reduction in pBR322 DNA relaxation incubated for 1 hrs measured by agarose gel electrophoresis method
T1 sequence (P11387 whole entry): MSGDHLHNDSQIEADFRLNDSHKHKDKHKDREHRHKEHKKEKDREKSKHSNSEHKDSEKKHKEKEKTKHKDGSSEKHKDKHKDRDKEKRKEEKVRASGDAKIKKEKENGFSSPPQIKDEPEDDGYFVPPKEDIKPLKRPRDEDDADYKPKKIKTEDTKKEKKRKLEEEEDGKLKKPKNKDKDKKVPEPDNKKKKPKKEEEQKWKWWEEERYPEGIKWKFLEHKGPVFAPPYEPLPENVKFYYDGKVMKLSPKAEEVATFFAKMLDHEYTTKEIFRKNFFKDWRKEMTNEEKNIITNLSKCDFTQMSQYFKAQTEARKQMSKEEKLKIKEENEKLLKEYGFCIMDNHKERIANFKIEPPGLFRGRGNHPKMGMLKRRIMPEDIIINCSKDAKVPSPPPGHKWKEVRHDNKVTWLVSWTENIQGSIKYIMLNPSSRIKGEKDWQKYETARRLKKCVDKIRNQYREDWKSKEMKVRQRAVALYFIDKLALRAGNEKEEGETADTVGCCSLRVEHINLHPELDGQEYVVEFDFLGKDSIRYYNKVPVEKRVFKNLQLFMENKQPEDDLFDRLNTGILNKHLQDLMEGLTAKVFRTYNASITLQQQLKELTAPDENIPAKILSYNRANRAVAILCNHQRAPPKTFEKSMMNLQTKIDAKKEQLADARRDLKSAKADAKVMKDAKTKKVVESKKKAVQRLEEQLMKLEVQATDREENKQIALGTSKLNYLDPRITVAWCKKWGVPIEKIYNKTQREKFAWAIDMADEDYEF

A549 [21] = assay: Induction of apoptosis in human A549 cells assessed as necrotic cells at 0.625 uM incubated for 48 hrs by Annexin V-FITC/propidium iodide staining based flow cytometric analysis; type: functional
A549 [22] = assay: Anti-migration activity in human A549 cells assessed as distance travelled at 0.625 uM incubated for 48 hrs by wound healing assay based phase contrast microscopy; type: functional
A549 [23] = assay: Induction of apoptosis in human A549 cells assessed as necrotic cells at 2.5 uM incubated for 48 hrs by Annexin V-FITC/propidium iodide staining based flow cytometric analysis; type: functional
Calf thymus DNA [24] = assay: Binding affinity to calf thymus DNA assessed as hyperchromicity at 10 uM by circular dichroism spectroscopy; type: nucleic-acid assay; conditions: Bos taurus
A549 [25] = assay: Induction of apoptosis in human A549 cells assessed as cell membrane disruption at 0.625 to 2.5 uM incubated for 48 hrs by phase contrast microscopy; type: functional, cell-based; conditions: dose 0.625-2.5 µM, DDE = dose-dependent effect
A549 [26] = assay: Induction of apoptosis in human A549 cells assessed as reduction on viable cells at 0.625 to 2.5 uM incubated for 48 hrs by phase contrast microscopy; type: functional, cell-based; conditions: dose 0.625-2.5 µM, DDE = dose-dependent effect
A549 [27] = assay: Induction of apoptosis in human A549 cells assessed as apoptotic body fragmentation at 0.625 to 2.5 uM incubated for 48 hrs by AO/EB staining based fluorescence microscopy; type: functional, cell-based; conditions: dose 0.625-2.5 µM, DDE = dose-dependent effect
A549 [28] = assay: Anti-migration activity in human A549 cells assessed as distance travelled at 1.25 uM by wound healing assay based phase contrast microscopy; type: functional
[29] = target: T2, DNA topoisomerase 1 (Homo sapiens) (UniProt P11387); assay: Inhibition of DNA topoisomerase 1 (unknown origin) assessed as reduction in pBR322 DNA relaxation at 10 uM incubated for 30 mins measured by agarose gel electrophoresis method relative to control
T2 sequence (whole entry): T1 sequence (P11387 whole entry)

A549 [30] = assay: Anti-migration activity in human A549 cells assessed as distance travelled at 2.5 uM incubated for 48 hrs by wound healing assay based phase contrast microscopy; type: functional
A549 [31] = assay: Inhibition of colony formation in human A549 cells assessed as decrease in colonies at 0.625 to 2.5 uM incubated for 7 days by crystal violet staining based assay; type: functional, cell-based; conditions: dose 0.625-2.5 µM, time 7.0 day, DDE = dose-dependent effect
A549 [32] = assay: Inhibition of cell migration in human A549 cells at 0.625 to 2.5 uM incubated for 48 hrs by wound healing assay based phase contrast microscopy; type: functional; conditions: dose 0.625-2.5 µM, DDE = dose-dependent effect

Chain of DNA topoisomerase 2-alpha (Homo sapiens) (P11388 whole entry): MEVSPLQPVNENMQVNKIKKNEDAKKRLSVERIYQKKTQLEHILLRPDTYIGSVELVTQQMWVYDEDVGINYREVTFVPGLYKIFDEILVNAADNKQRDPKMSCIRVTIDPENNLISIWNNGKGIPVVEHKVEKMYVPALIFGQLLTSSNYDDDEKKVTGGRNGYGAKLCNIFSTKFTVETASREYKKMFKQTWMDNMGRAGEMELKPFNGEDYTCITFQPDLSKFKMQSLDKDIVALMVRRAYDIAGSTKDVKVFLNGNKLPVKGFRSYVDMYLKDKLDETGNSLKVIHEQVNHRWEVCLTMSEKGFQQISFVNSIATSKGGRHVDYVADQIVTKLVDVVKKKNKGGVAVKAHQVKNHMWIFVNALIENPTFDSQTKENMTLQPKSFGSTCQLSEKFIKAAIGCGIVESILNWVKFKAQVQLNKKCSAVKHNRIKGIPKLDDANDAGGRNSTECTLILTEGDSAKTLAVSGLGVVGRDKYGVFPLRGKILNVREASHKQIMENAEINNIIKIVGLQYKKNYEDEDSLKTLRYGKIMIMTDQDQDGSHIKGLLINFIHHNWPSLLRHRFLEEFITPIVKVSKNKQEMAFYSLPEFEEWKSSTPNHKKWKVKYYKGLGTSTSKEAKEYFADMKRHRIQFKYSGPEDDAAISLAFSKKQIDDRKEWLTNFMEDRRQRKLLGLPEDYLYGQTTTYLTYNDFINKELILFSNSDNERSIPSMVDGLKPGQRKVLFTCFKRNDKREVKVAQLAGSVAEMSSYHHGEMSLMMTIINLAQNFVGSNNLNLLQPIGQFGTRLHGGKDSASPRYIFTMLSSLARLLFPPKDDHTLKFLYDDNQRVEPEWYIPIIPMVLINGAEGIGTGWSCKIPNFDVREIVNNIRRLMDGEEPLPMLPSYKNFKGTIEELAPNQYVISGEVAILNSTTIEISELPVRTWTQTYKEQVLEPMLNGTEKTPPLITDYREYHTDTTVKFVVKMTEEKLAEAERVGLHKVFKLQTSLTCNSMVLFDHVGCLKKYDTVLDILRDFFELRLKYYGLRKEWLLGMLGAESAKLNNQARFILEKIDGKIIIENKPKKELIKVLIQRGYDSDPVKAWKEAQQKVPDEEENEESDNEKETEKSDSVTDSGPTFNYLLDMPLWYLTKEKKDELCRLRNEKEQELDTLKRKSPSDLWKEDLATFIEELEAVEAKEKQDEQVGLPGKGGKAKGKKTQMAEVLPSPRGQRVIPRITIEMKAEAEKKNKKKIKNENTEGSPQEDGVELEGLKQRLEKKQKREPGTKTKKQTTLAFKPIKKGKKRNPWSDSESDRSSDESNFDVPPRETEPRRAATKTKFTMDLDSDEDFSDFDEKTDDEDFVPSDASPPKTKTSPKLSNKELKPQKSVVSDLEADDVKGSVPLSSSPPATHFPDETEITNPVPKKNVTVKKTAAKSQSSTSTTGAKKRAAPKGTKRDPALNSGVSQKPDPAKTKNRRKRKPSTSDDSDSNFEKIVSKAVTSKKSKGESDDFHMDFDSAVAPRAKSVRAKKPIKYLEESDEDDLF

Question: Which Activity (Calf thymus DNA [1]) does the source give for `Cc1ccc(C/N=C2\NC(=O)/C(=C3\CCNC(=O)c4[nH]c5ccccc5c43)S2)cc1` here?
Answer: Active

Question: And the Activity (A549 [2])?
Answer: Dde

Question: What about the Activity (A549 [3]) of the same compound?
Answer: 293.25 um

Question: What about the inhibition [4] of the same compound?
Answer: Active

Question: And the Activity (A549 [5])?
Answer: Active

Question: What about the Activity (A549 [6]) of the same compound?
Answer: 298.42 um

Question: And the Activity (Calf thymus DNA [7])?
Answer: Active

Question: And the IC50 (A549 [8])?
Answer: 1.24 µM

Question: What about the IC50 (HCT-116) of the same compound?
Answer: 6.55 µM

Question: What about the Activity (A549 [9]) of the same compound?
Answer: 3.09%

Question: What about the IC50 (MCF7) of the same compound?
Answer: 8.03 µM

Question: What about the Activity (A549 [10]) of the same compound?
Answer: Dde

Question: And the Activity (A549 [11])?
Answer: Active

Question: What about the Activity (A549 [12]) of the same compound?
Answer: Active

Question: What about the Activity (A549 [13]) of the same compound?
Answer: Active

Question: What about the Activity (A549 [14]) of the same compound?
Answer: Dde

Question: What about the Activity (A549 [15]) of the same compound?
Answer: Dde

Question: What about the IC50 (HT-29) of the same compound?
Answer: 10.9 µM

Question: And the IC50 (SK-MEL-28)?
Answer: 3.02 µM

Question: And the Activity (A549 [16])?
Answer: 363.56 um

Question: And the Activity (A549 [17])?
Answer: 2.97%

Question: And the Activity (A549 [18])?
Answer: Active

Question: And the Activity (A549 [19])?
Answer: Dde

Question: And the IC50 at 48 h [20]?
Answer: 53.2 µM

Question: What about the IC50 (DNA topoisomerase 1) of the same compound?
Answer: 48 µM

Question: What about the Activity (A549 [21]) of the same compound?
Answer: 4.8%

Question: And the Activity (A549 [22])?
Answer: 259.59 um

Question: What about the Activity (A549 [23]) of the same compound?
Answer: 5.96%

Question: And the Activity (Calf thymus DNA [24])?
Answer: Active

Question: What about the Activity (A549 [25]) of the same compound?
Answer: Dde

Question: What about the Activity (A549 [26]) of the same compound?
Answer: Dde

Question: What about the Activity (A549 [27]) of the same compound?
Answer: Dde

Question: And the Activity (A549 [28])?
Answer: 391.93 um

Question: What about the inhibition [29] of the same compound?
Answer: 28%

Question: What about the Activity (A549 [30]) of the same compound?
Answer: 445.52 um

Question: What about the inhibition (A549 [31]) of the same compound?
Answer: Dde

Question: And the inhibition (A549 [32])?
Answer: Dde
